Assay results taken from US11801256B2, “Antidepressant-psilocybin co-treatment to assist psychotherapy” (Universitätsspital Basel, priority 2021, dated 2023).

Experiments:
healthy subjects [1] = test: Subjective effects, visual analog scales (VAS), clinical study; assay type: in vivo, human
Protocol: (§1) Treatment order was random and counterbalanced.
Study procedures: Subjects took part in a 2-hour screening session, two 9.5-hour test sessions where the psilocybin was administered and a 1-hour end-of-study visit. The subjects were informed about the study both verbally and by the approved written consent form regarding the altered state of consciousness, the study procedures and associated risks. The investigator and the subject both personally signed and dated the consent form as confirmation of consent. Subjects were screened using a semi-structured clinical interview for DSM-IV (Diagnostic and Statistical Manual Version 4) (Wittchen et al., 1997) to exclude those with a personal or family (first-degree relative) axis I major psychiatric disorder (acute or past) or a history of illicit drug dependence. Axis I major psychiatric disorders included also addiction disorders. The sessions were conducted in a calm standard hospital room. Only one research subject and one investigator were present during the test sessions. The test sessions began at 9 AM. The subjects then underwent baseline measurements. […] Psilocybin was administered at 11:00 AM. The outcome measures were repeatedly assessed for 7 hours. The subjects were under constant supervision by an investigator until 6 PM. Thus, the subjects were never alone during the 7 hours after drug administration. The subjects were sent home at 6:30 PM.
Subjective Effects Questionnaire (Visual Analog Scales, VAS): VAS was repeatedly used to assess subjective alterations in consciousness over time. Single scales were presented as 100 mm horizontal lines marked with “not at all” on the left and “extremely” on the right. The following VAS items were used: “any drug effect”, “good drug effect”, “bad drug effect”, “drug liking”, “drug high”, “stimulated”, “fear”, “happy”, “content”, “trust”, “talkative”, “perception of time”, “open”, “concentration”, “speed of thinking”, “feeling close to others”, “wanting to be hugged”, “wanting to hug someone”, “desire to be alone”, “desire to be with others”, and “ego dissolution”. The VASs were presented as 100-mm horizontal lines (0-100%), marked from “not at all” on the left to “extremely” on the right. Some VASs were bidirectional (±50%). Marked from “not at all” on the left (−50), to “normal” in the middle (0), to “extremely” on the right (+50).
The criterion for significance was p<0.05.

healthy subjects [2] = test: Mystical Experience Questionnaire (MEQ30, MEQ43); assay type: in vivo, human; details: escitalopram 14 days pretreatment vs placebo; P=0.001
Protocol: as §1
Mystical experiences were assessed using the German version (Liechti et al., 2017) of the 100-item States of Consciousness Questionnaire (SOCQ) (Griffiths et al., 2006) that includes the 43-item and newer 30-item MEQ (MEQ43 (Griffiths et al., 2006) and MEQ30 (Barrett et al., 2015)). The scale was be administered once at the end of each test session.

healthy subjects [3] = test: Autonomic measures (blood pressure, heart rate, body temperature, pupil size)
Protocol: Study design: A double-blind, cross-over design was used with two conditions. […] 2) Pretreatment with placebo for 14 days with the last administration on the study day and administration of 25 mg psilocybin 2 hours later. Treatment order was random and counterbalanced. Between the 14 days pretreatment and the study day, there were at least 2 days washout until the next pretreatment phase began.
Autonomic measures: Blood pressure, heart rate, and body temperature were recorded at baseline and repeatedly throughout the session. Blood pressure (systolic and diastolic) and heart rate were measured with an automatic oscillometric device. Body temperature was measured with an ear thermometer as previously described in detail (Hysek et al., 2010). Measures were taken before and at 0, 0.25, 0.5, 0.75, 1, 1.5, 2, 2.5, 3, 4, 5, 6 and 7 hours after psilocybin administration.
Data analysis: Peak (Emax and/or Emin) or peak change from baseline (ΔEmax) values were determined for repeated measures. The values were then analyzed using paired T-tests using Statistica 12 software (StatSoft, Tulsa, OK, USA). The criterion for significance was p<0.05.

CYP2C19 = CYP2C19 (Homo sapiens, UniProt P33261); details: FDA, 2017; Swissmedic, 2020; cited from earlier work
2D6 = 2D6 (Homo sapiens, UniProt P10635); details: FDA, 2017; Swissmedic, 2020; cited from earlier work
[4] = escitalopram 14 days pretreatment vs placebo, P=0.004
[5] = escitalopram pretreatment compared to psilocybin alone (summary)
[6] = escitalopram pretreatment compared with placebo pretreatment (summary)

CYP2C19, sequence (P33261 whole entry): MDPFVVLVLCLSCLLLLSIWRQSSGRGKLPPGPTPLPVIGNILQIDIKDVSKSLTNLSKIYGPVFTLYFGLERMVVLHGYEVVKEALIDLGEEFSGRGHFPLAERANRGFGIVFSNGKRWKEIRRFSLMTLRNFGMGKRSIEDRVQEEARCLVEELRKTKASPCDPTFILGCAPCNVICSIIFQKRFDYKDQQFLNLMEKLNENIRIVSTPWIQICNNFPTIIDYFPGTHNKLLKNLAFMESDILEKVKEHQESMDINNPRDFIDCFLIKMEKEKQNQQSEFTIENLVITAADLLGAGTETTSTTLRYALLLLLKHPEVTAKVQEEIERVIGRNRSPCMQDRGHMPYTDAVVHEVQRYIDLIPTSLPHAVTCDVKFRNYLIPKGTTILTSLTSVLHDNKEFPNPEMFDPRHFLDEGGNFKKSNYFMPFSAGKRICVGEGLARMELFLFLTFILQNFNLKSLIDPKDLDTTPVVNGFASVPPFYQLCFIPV
2D6, sequence (P10635 whole entry): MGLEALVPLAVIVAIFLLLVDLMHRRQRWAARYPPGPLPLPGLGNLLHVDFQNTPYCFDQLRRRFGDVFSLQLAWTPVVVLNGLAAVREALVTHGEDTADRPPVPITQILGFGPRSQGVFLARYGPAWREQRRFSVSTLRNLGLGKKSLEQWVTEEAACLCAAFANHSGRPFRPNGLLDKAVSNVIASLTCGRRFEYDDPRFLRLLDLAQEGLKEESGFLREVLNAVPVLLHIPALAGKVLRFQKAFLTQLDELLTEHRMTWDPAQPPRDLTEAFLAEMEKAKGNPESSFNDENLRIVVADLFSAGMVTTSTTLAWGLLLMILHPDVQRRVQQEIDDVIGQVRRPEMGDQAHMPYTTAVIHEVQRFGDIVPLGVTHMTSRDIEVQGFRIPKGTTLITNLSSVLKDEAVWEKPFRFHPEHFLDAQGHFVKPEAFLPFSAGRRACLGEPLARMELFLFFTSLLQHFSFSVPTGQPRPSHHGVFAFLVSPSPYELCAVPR

SMILES: CN(C)CCC[C@@]1(c2ccc(F)cc2)OCc2cc(C#N)ccc21 [Escitalopram, escitalopram]
- effect on good drug effects of psilocybin (healthy subjects [1]; escitalopram 14 days pretreatment vs placebo): did not significantly reduce
- reduction of peak anxiety induced by psilocybin (healthy subjects [1]; [4]): 50%
- reduction of peak bad drug effects induced by psilocybin (healthy subjects [1]; [4]): 50%
- effect on any drug effects in response to psilocybin (healthy subjects [1]; escitalopram 14 days pretreatment vs placebo, P=0.015): slightly, but significantly reduced
- effect on the response to psilocybin, overall (healthy subjects [1]; escitalopram pretreatment 14 days (10 mg 7 days, 20 mg 7 days) before 25 mg psilocybin, compared to placebo pretreatment): only a small effect
- effect on psilocybin-induced fear (healthy subjects [1]; [5]): reduced
- effect on anxiety of psilocybin (in words) (healthy subjects [1]; [6]): significantly reduced
- effect on bad drug effects of psilocybin (in words) (healthy subjects [1]; [6]): significantly reduced
- effect on the positive mood effects of psilocybin (healthy subjects [1]; [6]): no relevant effect
- effect on psilocybin-induced nadir effects in the MEQ43 (healthy subjects [2]): significantly reduced
- effect on psilocybin-induced elevations in peak systolic blood pressure (healthy subjects [3]; escitalopram 14 days pretreatment vs placebo, P<0.001): reduced
- effect on psilocybin-induced elevations in rate pressure product (healthy subjects [3]; escitalopram 14 days pretreatment vs placebo, P=0.001): reduced
- effect on psilocybin-induced pupil dilation (healthy subjects [3]; escitalopram 14 days pretreatment vs placebo, P=0.002): reduced
- effect on psilocybin-induced elevations in peak diastolic blood pressure (healthy subjects [3]; escitalopram 14 days pretreatment vs placebo, P=0.017): reduced
- effect on psilocybin-induced cardio-stimulant effects (healthy subjects [3]; [5]): reduced
- effect on adverse autonomic effects of psilocybin (healthy subjects [3]; [6]): significantly reduced
- inhibition of CYP2C19 function (CYP2C19): slightly inhibits
- inhibition of 2D6 function (2D6): slightly inhibits
